Molecular target: T1, HDAC6 enzyme (Homo sapiens, UniProt Q9UBN7)
T1 construct: prepared by transducing full length HDAC6 gene into Sf-9 insect cells; GST; purchased SignalChem; host or cells: Sf-9 insect cells
T1 sequence (Q9UBN7 1-1215): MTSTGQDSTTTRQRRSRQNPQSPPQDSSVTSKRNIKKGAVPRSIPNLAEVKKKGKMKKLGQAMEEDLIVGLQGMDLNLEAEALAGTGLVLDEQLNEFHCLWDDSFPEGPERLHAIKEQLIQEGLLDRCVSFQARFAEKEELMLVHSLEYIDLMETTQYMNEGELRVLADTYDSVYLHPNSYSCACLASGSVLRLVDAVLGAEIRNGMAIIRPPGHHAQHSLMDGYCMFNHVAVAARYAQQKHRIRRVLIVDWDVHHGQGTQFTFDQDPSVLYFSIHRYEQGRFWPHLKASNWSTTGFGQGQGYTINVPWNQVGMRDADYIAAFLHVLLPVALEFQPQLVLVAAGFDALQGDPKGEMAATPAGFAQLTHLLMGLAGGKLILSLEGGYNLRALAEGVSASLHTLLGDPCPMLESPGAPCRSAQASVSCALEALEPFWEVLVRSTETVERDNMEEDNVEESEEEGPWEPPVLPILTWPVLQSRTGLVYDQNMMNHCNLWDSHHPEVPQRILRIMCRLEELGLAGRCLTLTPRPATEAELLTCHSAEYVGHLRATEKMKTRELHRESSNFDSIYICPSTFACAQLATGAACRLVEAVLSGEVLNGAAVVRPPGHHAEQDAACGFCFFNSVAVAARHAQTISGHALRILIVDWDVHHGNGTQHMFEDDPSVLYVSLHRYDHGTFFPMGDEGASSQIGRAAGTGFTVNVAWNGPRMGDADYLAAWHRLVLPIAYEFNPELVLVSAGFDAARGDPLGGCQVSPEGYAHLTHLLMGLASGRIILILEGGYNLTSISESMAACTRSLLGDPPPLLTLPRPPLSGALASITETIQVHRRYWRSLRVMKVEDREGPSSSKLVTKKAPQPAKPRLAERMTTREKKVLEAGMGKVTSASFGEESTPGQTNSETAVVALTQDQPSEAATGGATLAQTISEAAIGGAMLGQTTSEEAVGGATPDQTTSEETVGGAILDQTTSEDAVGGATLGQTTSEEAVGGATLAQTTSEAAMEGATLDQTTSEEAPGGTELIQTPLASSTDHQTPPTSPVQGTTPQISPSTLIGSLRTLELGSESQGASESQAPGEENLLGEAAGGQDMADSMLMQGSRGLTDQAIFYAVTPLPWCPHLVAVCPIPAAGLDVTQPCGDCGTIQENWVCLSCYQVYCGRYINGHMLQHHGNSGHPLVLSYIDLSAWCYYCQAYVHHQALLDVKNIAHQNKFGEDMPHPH
Assay: HDAC6 enzyme inhibitory assay (HDAC-Glo I/II Assay kit, luminescence)
Assay type: biochemical
Settings: 10 μM test compound; wells without enzyme = 100% inhibition; read-out: HDAC6 inhibitory rate (%) (10 μM)
How it was run: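 Full-length human HDAC6, GST-purified from Sf-9 cells, was preincubated with compound for 60 min at room temperature in Tris-HCl pH 7.5 buffer with glutathione and Tween-20. Substrate-developer was then added, and luminescence was read after 20 min at room temperature. Inhibition was expressed relative to no-enzyme wells, taken as 100% inhibition.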

Q: How did the inhibition at 10 µM turn out when `O=C1NN(c2ccc(F)c(F)c2)Cc2ccc(-c3nnc(C(F)F)o3)cc21` [Example 30b, 7-[5-(difluoromethyl)-1,3,4-oxadiazol-2-yl]-3-(3,4-difluorophenyl)-3,4-dihydrophthalazin-1(2H)-one] was run?
A: The inhibition at 10 µM was 100%.

Q: `N#Cc1ccccc1Cn1ccnc1-c1cc(-c2nnc(C(F)F)o2)ccn1` [Example 79a] was tested. Which inhibition at 10 µM did it give?
A: The inhibition at 10 µM was 99%.

Q: For `CC(NN1Cc2ccc(-c3nnc(C(F)F)o3)cc2C1=O)c1ccc(F)cc1` (stereo not shown) [Example 22c, 6-[5-(difluoromethyl)-1,3,4-oxadiazol-2-yl]-2-{[1-(4-fluorophenyl)ethyl]amino}-2,3-dihydro-1H-isoindol-1-one], which inhibition at 10 µM is on record?
A: The inhibition at 10 µM was 100%.

Q: Which inhibition at 10 µM does the source give for `CN(Cc1cccc(N2CCOCC2)c1)N1Cc2ccc(-c3nnc(C(F)F)o3)cc2C1=O` [Example 61c, 6-[5-(difluoromethyl)-1,3,4-oxadiazol-2-yl]-2-(methyl{[3-(morpholin-4-yl)phenyl]methyl}amino)-2,3-dihydro-1H-isoindol-1-one] here?
A: Its inhibition at 10 µM is 99%.

Q: Which inhibition at 10 µM does the source give for `CCN1C(=O)c2cc(-c3nnc(C(F)F)o3)ccc2CN1c1ccc(F)cc1` [Example 46b, 7-[5-(difluoromethyl)-1,3,4-oxadiazol-2-yl]-2-ethyl-3-(4-fluorophenyl)-3,4-dihydrophthalazin-1(2H)-one] here?
A: Its inhibition at 10 µM is 100%.

Q: How did the inhibition at 10 µM turn out when `Cc1ccccc1Cn1ccnc1-c1cc(-c2nnc(C(F)F)o2)ccn1` [Example 86a, 4-[5-(difluoromethyl)-1,3,4-oxadiazol-2-yl]-2-{1-[(2-methylphenyl)methyl]-1H-imidazol-2-yl}pyridine] was run?
A: Its inhibition at 10 µM is 100%.

Q: With `O=C1c2cc(-c3nnc(C(F)F)o3)ccc2CN1N(CCC1CCOCC1)Cc1ccc(F)cc1` [Example 21c, 6-[5-(difluoromethyl)-1,3,4-oxadiazol-2-yl]-2-{[(4-fluorophenyl)methyl][2-(oxan-4-yl)ethyl]amino}-2,3-dihydro-1H-isoindol-1-one] as the compound, how does the inhibition at 10 µM read?
A: The inhibition at 10 µM was 99%.

Q: Which inhibition at 10 µM does the source give for `O=C1c2cc(-c3nnc(C(F)F)o3)ccc2CN1Nc1c(F)c(F)c(F)c(F)c1F` [Example 32c, 6-[5-(difluoromethyl)-1,3,4-oxadiazol-2-yl]-2-(pentafluoroanilino)-2,3-dihydro-1H-isoindol-1-one] here?
A: Its inhibition at 10 µM is 95%.

Q: How did the inhibition at 10 µM turn out when `Cn1ccc(Cn2ccnc2-c2cc(F)cc(-c3nnc(C(F)F)o3)c2)n1` [Example 23a, 2-(difluoromethyl)-5-(3-fluoro-5-{1-[(1-methyl-1H-pyrazol-3-yl)methyl]-1H-imidazol-2-yl}phenyl)-1,3,4-oxadiazole] was run?
A: The inhibition at 10 µM was 96%.

Q: With `Fc1cc(-c2nnc(C(F)F)o2)cc(-c2ncccc2OCc2ccccc2)c1` [Example 5a, 3-(benzyloxy)-2-{3-[5-(difluoromethyl)-1,3,4-oxadiazol-2-yl]-5-fluorophenyl}pyridine] as the compound, how does the inhibition at 10 µM read?
A: The inhibition at 10 µM was 98%.

Q: For `COc1cccc(Cn2ccnc2-c2cc(-c3nnc(C(F)F)o3)ccn2)c1` [Example 81a, 4-[5-(difluoromethyl)-1,3,4-oxadiazol-2-yl]-2-{1-[(3-methoxyphenyl)methyl]-1H-imidazol-2-yl}pyridine], which inhibition at 10 µM is on record?
A: Its inhibition at 10 µM is 101%.

Q: `Cc1cc(Cn2ccnc2-c2cc(F)cc(-c3nnc(C(F)F)o3)c2)n(C)n1` [Example 64a, 2-(difluoromethyl)-5-(3-{1-[(1,3-dimethyl-1H-pyrazol-5-yl)methyl]-1H-imidazol-2-yl}-5-fluorophenyl)-1,3,4-oxadiazole] was tested. Which inhibition at 10 µM did it give?
A: The inhibition at 10 µM was 98%.

Q: Which inhibition at 10 µM does the source give for `Fc1cccc(Cc2ncnn2-c2cc(-c3nnc(C(F)F)o3)ccn2)c1` [Example 89a, 4-[5-(difluoromethyl)-1,3,4-oxadiazol-2-yl]-2-{5-[(3-fluorophenyl)methyl]-1H-1,2,4-triazol-1-yl}pyridine] here?
A: Its inhibition at 10 µM is 97%.

Q: Which inhibition at 10 µM does the source give for `Cc1ccc(COc2cccnc2-c2cc(F)cc(-c3nnc(C(F)F)o3)c2)cc1` [Example 9a] here?
A: The inhibition at 10 µM was 79%.

Q: For `C[C@@]1(c2ccc(F)cc2)Cc2ncc(-c3nnc(C(F)F)o3)cc2C(=O)N1CC(F)F` [Example 54b, (7S)-6-(2,2-difluoroethyl)-3-[5-(difluoromethyl)-1,3,4-oxadiazol-2-yl]-7-(4-fluorophenyl)-7-methyl-7,8-dihydro-1,6-naphthyridin-5(6H)-one], which inhibition at 10 µM is on record?
A: The inhibition at 10 µM was 75%.

Q: How did the inhibition at 10 µM turn out when `CN(Cc1ccccc1Oc1cnccn1)N1Cc2ccc(-c3nnc(C(F)F)o3)cc2C1=O` [Example 59c, 6-[5-(difluoromethyl)-1,3,4-oxadiazol-2-yl]-2-[methyl({2-[(pyrazin-2-yl)oxy]phenyl}methyl)amino]-2,3-dihydro-1H-isoindol-1-one] was run?
A: The inhibition at 10 µM was 101%.

Q: How did the inhibition at 10 µM turn out when `FC(F)c1nnc(-c2ccnc(-c3nccn3Cc3ccccc3)c2)o1` [Example 36a, 2-(1-benzyl-1H-imidazol-2-yl)-4-[5-(difluoromethyl)-1,3,4-oxadiazol-2-yl]pyridine] was run?
A: Its inhibition at 10 µM is 101%.

Q: For `CN1C(=O)c2cc(-c3nnc(C(F)F)o3)ccc2OC1(C)c1ccc(C(F)(F)F)cc1` (stereo not shown) [Example 17b, 6-[5-(difluoromethyl)-1,3,4-oxadiazol-2-yl]-2,3-dimethyl-2-[4-(trifluoromethyl)phenyl]-2,3-dihydro-4H-1,3-benzoxazin-4-one], which inhibition at 10 µM is on record?
A: The inhibition at 10 µM was 100%.

Q: With `O=C(CC(F)(F)F)N(Cc1cnn(C2CC2)c1)N1Cc2ccc(-c3nnc(C(F)F)o3)cc2C1=O` [Example 12c, N-[(1-cyclopropyl-1H-pyrazol-4-yl)methyl]-N-{6-[5-(difluoromethyl)-1,3,4-oxadiazol-2-yl]-1-oxo-1,3-dihydro-2H-isoindol-2-yl}-3,3,3-trifluoropropanamide] as the compound, how does the inhibition at 10 µM read?
A: Its inhibition at 10 µM is 98%.

Q: How did the inhibition at 10 µM turn out when `CN1C(=O)c2cc(-c3nnc(C(F)F)o3)ccc2CC1c1ccc(F)cc1` (stereo not shown) [Example 33b, 7-[5-(difluoromethyl)-1,3,4-oxadiazol-2-yl]-3-(4-fluorophenyl)-2-methyl-3,4-dihydroisoquinolin-1(2H)-one] was run?
A: Its inhibition at 10 µM is 100%.

Q: `COc1cncc(Cn2ccnc2-c2cc(F)cc(-c3nnc(C(F)F)o3)c2)n1` [Example 58a, 2-[(2-{3-[5-(difluoromethyl)-1,3,4-oxadiazol-2-yl]-5-fluorophenyl}-1H-imidazol-1-yl)methyl]-6-methoxypyrazine] was tested. Which inhibition at 10 µM did it give?
A: Its inhibition at 10 µM is 98%.

Q: For `Cn1ccc(OC2CCC(F)(F)CC2)c(-c2cc(-c3nnc(C(F)F)o3)ccn2)c1=O` [Example 88a, 4′-[(4,4-difluorocyclohexyl)oxy]-4-[5-(difluoromethyl)-1,3,4-oxadiazol-2-yl]-1′-methyl[2,3′-bipyridine]-2′(1′H)-one], which inhibition at 10 µM is on record?
A: Its inhibition at 10 µM is 100%.

Q: For `CNC(=O)c1ccc(Cn2ccnc2-c2cc(F)cc(-c3nnc(C(F)F)o3)c2)cc1F` [Example 34a, 4-[(2-{3-[5-(difluoromethyl)-1,3,4-oxadiazol-2-yl]-5-fluorophenyl}-1H-imidazol-1-yl)methyl]-2-fluoro-N-methylbenzamide], which inhibition at 10 µM is on record?
A: Its inhibition at 10 µM is 98%.

Q: Which inhibition at 10 µM does the source give for `CN(Cc1cccc(-c2cnccn2)c1)N1Cc2ccc(-c3nnc(C(F)F)o3)cc2C1=O` [Example 53c, 6-[5-(difluoromethyl)-1,3,4-oxadiazol-2-yl]-2-(methyl{[3-(pyrazin-2-yl)phenyl]methyl}amino)-2,3-dihydro-1H-isoindol-1-one] here?
A: Its inhibition at 10 µM is 101%.

Q: Which inhibition at 10 µM does the source give for `O=C1c2cc(-c3nnc(C(F)F)o3)ccc2CN1NCC(F)(F)F` [Example 31c, 6-[5-(difluoromethyl)-1,3,4-oxadiazol-2-yl]-2-[(2,2,2-trifluoroethyl)amino]-2,3-dihydro-1H-isoindol-1-one] here?
A: The inhibition at 10 µM was 90%.

Q: For `CN(Cc1ccc(F)c(F)c1)N1Cc2ccc(-c3nnc(C(F)F)o3)cc2C1=O` [Example 40c, 6-[5-(difluoromethyl)-1,3,4-oxadiazol-2-yl]-2-{[(3,4-difluorophenyl)methyl](methyl)amino}-2,3-dihydro-1H-isoindol-1-one], which inhibition at 10 µM is on record?
A: The inhibition at 10 µM was 101%.

Q: Which inhibition at 10 µM does the source give for `COCCOc1ccc(CN(C)N2Cc3ccc(-c4nnc(C(F)F)o4)cc3C2=O)cc1` [Example 55c, 6-[5-(difluoromethyl)-1,3,4-oxadiazol-2-yl]-2-[{[4-(2-methoxyethoxy)phenyl]methyl} (methyl)amino]-2,3-dihydro-1H-isoindol-1-one] here?
A: Its inhibition at 10 µM is 101%.

Q: For `COCC1(c2ccccc2)Oc2ccc(-c3nnc(C(F)F)o3)cc2C(=O)N1C` (stereo not shown) [Example 51b, 6-[5-(difluoromethyl)-1,3,4-oxadiazol-2-yl]-2-(methoxymethyl)-3-methyl-2-phenyl-2,3-dihydro-4H-1,3-benzoxazin-4-one], which inhibition at 10 µM is on record?
A: The inhibition at 10 µM was 99%.

— US12084436B2, “Heterocyclic compound” (Takeda Pharmaceutical Company Limited, priority 2019, dated 2024)
